Read-outs that look alike come from different tables or passages of the source. *1 amine or outer side, *2 acyl side, *3 side chain or, on linkers, in order; H or OH if unused. Where a SMILES comes first, the peptide text is derived from it. Bridges are numbered along the chain shown (N, C = ends). [ ]: non-standard residue; d: D form. The star is where a group is joined. hTyr(3S-OH,4S-OH,3'-OSO3H) = N[C@H](C(=O)O)[C@H](O)[C@@H](O)c1ccc(O)c(OS(=O)(=O)O)c1; Orn(4R-OH,5R-OH) = O=C([C@H](C[C@@H](O)[C@@H](O)N[*:3])N[*:1])[*:2]; Pro(3S-OH,4S-Me) = C[C@H]1CN[C@H](C(=O)O)[C@H]1O; X1 = CCCCCOc1ccc(-c2cc(-c3ccc(C(=O)*)cc3)no2)cc1; Gln(3R-OH) = NC(=O)C[C@@H](O)[C@H](N)C(=O)O; Hyp = O=C(O)[C@@H]1C[C@@H](O)CN1
Assays:
P. aeruginosa [1] = type: cell-based, Pseudomonas aeruginosa
Description: Growth and high-throughput LacZ assays were optimized in a 384-well plate format using three reporter strains In order to identify down-regulators of virulence, rather than growth-inhibitors of P. aeruginosa, special care was taken to eliminate compounds that (i) interfered with the LacZ assay and (ii) affected P. aeruginosa growth. […] Growth-inhibition assays using the small molecule library were performed by monitoring optical density at 600 nm (OD600 nm).
(§6) In various examples, bacterial growth was carried out in LB supplemented with 50 mM Mops, pH 7.0 (hereafter, LB-Mops). To commence a screen, a P. aeruginosa reporter strain from an LB agar plate was used to inoculate 5 mL of LB-Mops medium in a sterile 14-mL bacterial culture tube. The culture was grown for 4 h at 30° C./250 rpm. After 4 h, its optical density (OD600 nm) was determined on a Cary 60 UV-visible spectrophotometer (Agilent). The culture was diluted into 100 mL of LB-Mops to give a final OD600 nm of 0.05. Subsequently a volume of 50 μL was dispensed into each of six sterile, 384 well plates (Corning) using a Multiflo Microplate Dispenser (Biotek). Candidate elicitors were added to the plates using a CyBi-Well automated liquid transfer robot (CyBio). Each well was supplemented with 0.2 μL of a compound from the Enzo Scientific FDA approved drug library, which comprises 770 molecules. The compounds were dispensed into columns 3 through 22 on each plate. Columns 2 and 23 contained the negative control (the reporter strain being tested in the absence of any compounds), and columns 1 and 24 contained the positive control (e.g., strain phzB2-lacZ). Each compound was tested in duplicate, using three 384-well plates per set. Each plate was covered with a Breathe-Easy sealing membrane (Sigma) and cultured at 30° C./250 rpm in a Multitron Shaker (ATR) equipped with green sealing tray. To maintain constant humidity, several 1-L Erlenmeyer flasks containing 200 mL of sterile water were also placed inside the shaker. After 12 h, the plates were removed from the shaker. The β-Glo reagent (Promega) was used to monitor LacZ activity. The reagent was diluted 3:1 with water. Then each well was supplemented with 15 μL of the diluted β-Glo reagent using the Multiflo automated dispenser, manually shaken to mix, and incubated in the dark at room temperature for 10 min. Total end-point luminescence was then determined on a Synergy H1MF plate reader (Biotek).

[2] = test system: virulence factor expression (seven lacZ reporter strains); type: cell-based, Pseudomonas aeruginosa
From the text: Seven reporter strains from the sequence-verified transposon mutant library generated by Manoil and colleagues were identified, in which transposons carrying a promoterless lacZ reporter were inserted into the genome of P. aeruginosa. The strains selected carried an in-frame lacZ reporter in aprD (alkaline protease), pqsA (PQS biosynthesis), hcnB (HCN biosynthesis), algK (alginate biosynthesis), phzB2 and phzF1 (phenazine biosynthesis from two different gene clusters), and plcH (phospholipase C). […] By carrying out an ex vivo LacZ assay, all LacZ assay inhibitors in a library of small molecules were identified. Growth-inhibition assays using the small molecule library were performed by monitoring optical density at 600 nm (OD600 nm).
After a defined growth period, the expression of each of the seven reporter strains was determined using high-throughput LacZ assays. The LacZ activity was normalized relative to the negative control. The log10 of the fold-change for each of the seven strains were combined and colorized to produce an anti-virulence heat-map.
as §6

phzF1-lacZ = experiment: microbe, parasite or virus in culture; type: cell-based
[3] = test system: P. aeruginosa phzF1-lacZ strain; experiment: Dose-dependent growth inhibition of phzF1-lacZ strain by antibiotics; type: cell-based
P. aeruginosa [4] = experiment: Growth curve of P. aeruginosa in absence and presence of guanfacine; type: cell-based, Pseudomonas aeruginosa; settings: 10, 20, 40 and 80 μM guanfacine
Description: FIG. 2 is a graph showing the growth curve of P. aeruginosa in the absence (DMSO) and presence of guanfacine in various concentrations (10 μM, 20 μM, 40 μM, and 80 μM).

[5] = test system: seven virulence genes (aprD, pqsA, hcnB, algK, phzB2, phzF1, plcH lacZ reporters); experiment: LacZ assay in flask cultures, seven virulence reporter strains; type: cell-based, Pseudomonas aeruginosa; settings: relative to untreated control
From the text: FIG. 3A is a graph showing the transcriptional down-regulation of seven virulence genes by guanfacine relative to an untreated control.
The effect of guanfacine on the expression of virulence factors was verified in flask cultures. […].
In one example, reporter genes for the various virulence factors encoded in the P. aeruginosa genome were selected. Seven reporter strains from the sequence-verified transposon mutant library generated by Manoil and colleagues were identified, in which transposons carrying a promoterless lacZ reporter were inserted into the genome of P. aeruginosa. The strains selected carried an in-frame lacZ reporter in aprD (alkaline protease), pqsA (PQS biosynthesis), hcnB (HCN biosynthesis), algK (alginate biosynthesis), phzB2 and phzF1 (phenazine biosynthesis from two different gene clusters), and plcH (phospholipase C). […]
Assays were carried out in 50 mL Erlenmeyer flasks containing 10 mL of LB-Mops. […] After 4 h, OD600 nm was determined, and the culture subsequently diluted to an initial OD600 nm of 0.05 in a 50 mL Erlenmeyer flask. […] End-point luminescence was determined on a Biotek H1MF plate reader. To obtain IC50 values, the averaged luminescence output (used to determine LacZ activity) was plotted against the log of the concentration of the inhibitor. […]

phzB2-lacZ = phzB2-lacZ reporter dose-response; type: cell-based; settings: Pseudomonas aeruginosa, read-out: IC50, concentration at which half-maximal down-regulation was observed (phzB2 reporter)
Description: FIG. 3B is a graph showing the dose-response of phzB2-lacZ as a function of guanfacine concentration.
Assays were carried out in 50 mL Erlenmeyer flasks containing 10 mL of LB-Mops. For LacZ assays, an appropriate reporter strain from an LB agar plate was used to inoculate 5 mL of LB-Mops in a sterile 14 mL bacterial culture tube. After 4 h, OD600 nm was determined, and the culture subsequently diluted to an initial OD600 nm of 0.05 in a 50 mL Erlenmeyer flask. The compound of interest was added from stock concentrations generated in DMSO. A control containing only DMSO was also included. Assays were typically carried out in three biological replicates. A positive control culture, phzB2-lacZ in the absence of any compounds, was grown in parallel as well. The cultures were grown at 30° C./200 rpm. After 12 h, 65 μL was removed from each culture flask and dispensed into a sterile, white 96-well plate (Corning). Each well was supplemented with 35 μL of 3:1 diluted β-Glo reagent (Promega). The plate was incubated in the dark at room temperature for 10 minutes. End-point luminescence was determined on a Biotek H1MF plate reader. To obtain IC50 values, the averaged luminescence output (used to determine LacZ activity) was plotted against the log of the concentration of the inhibitor. The data were fit to a dose-response curve using GraphPad Prism software.

pyocyanin biosynthesis = experiment: Pyocyanin quantification; type: cell-based, Pseudomonas aeruginosa; settings: treated vs untreated cultures, concentration-dependent
From the text: FIG. 3C is a graph showing the dose-dependent reduction of pyocynanin biosynthesis as a function of guanfacine concentration.
The effects of guanfacine were probed further by measuring the levels of pyocyanin, a downstream product of phenazine. Pyocyanin is the blue secondary metabolite responsible for both the toxicity and characteristic color of P. aeruginosa. […]. Without being bound to a particular theory, the likely cause of the incomplete suppression of pyocyanin synthesis is the existence of two independently-expressed copies of the phenazine biosynthetic operon. Nonetheless, the direct measurement of pyocyanin corroborates results observed with the reporter strains. The production of both phenazines and pyocyanin is known to be regulated by the las and pqs QS circuits. Specifically, in response to 3O-C12-HSL, LasR induces expression of the pqs operon and the LysR-type regulator, PqsR. The PQS/PqsR complex then activates phenazine and pyocyanin synthesis. To verify that guanfacine acts upstream of both products, levels of quinolines were directly measured. […].
(§1) Pyocyanin quantification. Pyocyanin quantification was carried by a method adapted from Essar et al.[17] […] 120 μL of this extract was transferred to a clear 96-well plate and the OD520 nm was recorded using a plate reader. […]

HHQ and PQS production = experiment: HPLC-MS quantification of HHQ and PQS in wt P. aeruginosa; type: cell-based, Pseudomonas aeruginosa
Description: FIG. 3D is a graph showing the relative quantification of HHQ and PQS produced by wt P. aeruginosa as a function of guanfacine concentration, normalized to an untreated control.
[…]. This HPLC analysis of cell-free supernatants of P. aeruginosa in the absence (solid lines) or presence (dashed lines) of 40 μM guanfacine. Peaks corresponding to HHQ and PQS are labeled, peaks of other quinolones are indicated with an asterisk.
The effects of guanfacine were probed further by measuring the levels of pyocyanin, a downstream product of phenazine. Pyocyanin is the blue secondary metabolite responsible for both the toxicity and characteristic color of P. aeruginosa. […]. […] To verify that guanfacine acts upstream of both products, levels of quinolines were directly measured. […]
(§2) HPLC-MS analysis. Direct detection and quantification of HHQ and PQS was carried out by growing wt P. aeruginosa under identical conditions as described above (for growth in 50 mL Erlenmeyer flasks). […] The organic layer was separated, dried completely in a speedvac concentrator, resuspended in 0.5 mL of MeOH, and analysed on an Agilent HPLC-MS consisting of a liquid autosampler, a 1260 Infinity Series HPLC system coupled to a photodiode array detector and a 6120 Series ESI mass spectrometer. […]

pelB-lacZ = pelB-lacZ reporter dose-response; type: cell-based, Pseudomonas aeruginosa
From the text: (§3) FIG. 3F is a graph of the dose-response of the expression of pelG and pelB, involved in biofilm production, as a function of guanfacine concentration, using the appropriate LacZ reporter strain.
(§4) Another important virulence determinant in P. aeruginosa is biofilm formation. A cluster of genes, termed pel regulated by the las QS system, have been established as responsible for producing the biofilm matrix exopolysaccharide. Two reporter strains carrying translational lacZ fusions (pelB-lacZ and pelG-lacZ) were subjected to guanfacine dose-response analysis. […].
(§5) Assays were carried out in 50 mL Erlenmeyer flasks containing 10 mL of LB-Mops. For LacZ assays, an appropriate reporter strain from an LB agar plate was used to inoculate 5 mL of LB-Mops in a sterile 14 mL bacterial culture tube. After 4 h, OD600 nm was determined, and the culture subsequently diluted to an initial OD600 nm of 0.05 in a 50 mL Erlenmeyer flask. The compound of interest was added from stock concentrations generated in DMSO. A control containing only DMSO was also included. Assays were typically carried out in three biological replicates. […] End-point luminescence was determined on a Biotek H1MF plate reader. To obtain IC50 values, the averaged luminescence output (used to determine LacZ activity) was plotted against the log of the concentration of the inhibitor. […]

pelG-lacZ = pelG-lacZ reporter dose-response; type: cell-based, Pseudomonas aeruginosa
From the text: as §3, §4, §5

[6] = test system: pmrB::Tn mutant (QseC homolog); experiment: HHQ and pyocyanin production in pmrB::Tn mutant; type: cell-based, Pseudomonas aeruginosa; settings: pmrB::Tn cultures supplemented with guanfacine
Description: FIG. 4 is a graph of the quantification of the levels of HHQ (black bars) and pyocyanin (white bars) in guanfacine-treated and untreated cultures.
To explore this idea, a mutant carrying a transposon insertion in pmrB (pmrB::Tn) was tested. Both wt and mutant strains were grown in the presence of guanfacine or DMSO (control), and the production of HHQ was quantified directly using HPLC-MS, while pyocyanin synthesis was assessed as previously reported. […] In the absence of the sensor His kinase, guanfacine was unable to exert its down-regulatory effect, especially with pyocyanin where significant production remained.
as §2, §1

[7] = relative to the untreated strain, OD600 nm after 12 h
[8] = LacZ activity normalized to negative control, seven reporter strains
[9] = Pseudomonas aeruginosa; read-out: EC50, concentration at which induction of phzF1-lacZ was half-maximal
[10] = Pseudomonas aeruginosa, PHZF1LACZSTRAIN; read-out: growth-inhibitory IC50

Molecule: O=C(N[C@H](CO)[C@H](O)c1ccc([N+](=O)[O-])cc1)C(Cl)Cl [Chloramphenicol]
- % Growth Inhibition (P. aeruginosa [1]; [7]): 64%

Molecule: [H]/N=C(\N/C(=N/[H])NCCCCCCNC(=N)NC(=N)Nc1ccc(Cl)cc1)Nc1ccc(Cl)cc1 [Chlorhexidine]
- % Growth Inhibition (P. aeruginosa [1]; [7]): 96%

Molecule: C[C@]12CC[C@@H]3c4ccc(O)cc4CC[C@H]3[C@@H]1CC[C@@H]2O [Estradiol]
- % Growth Inhibition (P. aeruginosa [1]; [7]): 73%

Molecule: CCCCCCCCc1ccc(CCC(N)(CO)CO)cc1 [Fingolimod]
- % Growth Inhibition (P. aeruginosa [1]; [7]): 76%

Molecule: CCCCCOc1ccc(-c2cc(-c3ccc(C(=O)N[C@H]4C[C@@H](O)[C@@H](O)NC(=O)[C@@H]5[C@@H](O)[C@@H](C)CN5C(=O)[C@H]([C@H](O)CC(N)=O)NC(=O)[C@H]([C@H](O)[C@@H](O)c5ccc(O)c(OS(=O)(=O)O)c5)NC(=O)[C@@H]5C[C@@H](O)CN5C(=O)[C@H]([C@@H](C)O)NC4=O)cc3)no2)cc1 [Micafungin] (X1-[Orn(4R-OH,5R-OH)]T[Hyp][hTyr(3S-OH,4S-OH,3'-OSO3H)][Gln(3R-OH)][Pro(3S-OH,4S-Me)]; lactam 1-C)
- % Growth Inhibition (P. aeruginosa [1]; [7]): 54%

Molecule: CCN1CCN(C(=O)N[C@@H](C(=O)N[C@@H]2C(=O)N3[C@@H]2SC(C)(C)[C@@H]3C(=O)O)c2ccccc2)C(=O)C1=O [Piperacillin]
- effect on virulence factor expression in screen [2, 8]: further enhance the expression of virulence factors
- EC50 (phzF1-lacZ; [9]): 8.4 µM
- IC50 [3, 10]: 6.4 µM

Molecule: CC/C(=C(\c1ccccc1)c1ccc(OCCN(C)C)cc1)c1ccccc1 [Tamoxifen]
- % Growth Inhibition (P. aeruginosa [1]): 57%

Molecule: COc1cc(Cc2cnc(N)nc2N)cc(OC)c1OC [Trimethoprim]
- % Growth Inhibition (P. aeruginosa [1]): 73%

Molecule: CN1CCc2cccc3c2[C@H]1Cc1ccc(O)c(O)c1-3 [apomorphine]
- effect on virulence factor expression in screen [2]: A similar effect

Molecule: CO/N=C(\C(=O)N[C@@H]1C(=O)N2C(C(=O)O)=C(C[N+]3(C)CCCC3)CS[C@H]12)c1csc(N)n1 [cefepime]
- IC50 [3, 10]: 4.6 µM

Molecule: C/C=C/C1=C(C(=O)O)N2C(=O)[C@@H](NC(=O)[C@H](N)c3ccc(O)cc3)[C@H]2SC1 [cefprozil]
- EC50 (phzF1-lacZ; Pseudomonas aeruginosa, read-out: EC50, concentration at which induction of phzF1-lacZ was half-maximal): 58 µM
- IC50 ([3]; Pseudomonas aeruginosa, PHZF1LACZSTRAIN, read-out: growth-inhibitory IC50): 362 µM

Molecule: CC(C)(O/N=C(\C(=O)N[C@@H]1C(=O)N2C(C(=O)O)=C(C[n+]3ccccc3)CS[C@H]12)c1csc(N)n1)C(=O)O [ceftazidime]
- EC50 (phzF1-lacZ; [9]): 21 µM
- IC50 [3, 10]: 53 µM

Molecule: N=C(N)NC(=O)Cc1c(Cl)cccc1Cl [guanfacine]
- growth inhibition (growth curve versus DMSO control) (P. aeruginosa [4]): not growth-inhibitory
- reduction of reporter expression across seven reporter strains [5]: 2-9 fold
- IC50 (phzB2-lacZ): 19 µM
- reduction in the levels of pyocyanin (pyocyanin biosynthesis): 1.5 fold
- levels of HHQ, PQS and several other quinolines (HHQ and PQS production): decreased levels
- fold less PQS relative to DMSO-treated control (HHQ and PQS production; 40 μM guanfacine): 4.5 fold
- suppression of pelB expression (pelB-lacZ; 80 μM guanfacine): Nearly complete suppression
- IC50 (pelB-lacZ; Pseudomonas aeruginosa, pelB-lacZ): 5.8 µM
- suppression of pelG expression (pelG-lacZ; 80 μM guanfacine): Nearly complete suppression
- IC50 (pelG-lacZ; Pseudomonas aeruginosa, pelG-lacZ): 3.1 µM
- effect on HHQ and pyocyanin production in pmrB::Tn cultures [6]: no further effect
- effect on virulence factor expression in screen [2, 8]: A similar effect

Molecule: CC(C)Cc1ccc(C(C)C(=O)O)cc1 (stereo not drawn) [ibuprofen]
- effect on virulence factor expression in screen [2, 8]: down-regulated virulence factor expression

Molecule: CC(C(=O)O)c1cccc(C(=O)c2ccccc2)c1 (stereo not drawn) [ketoprofen]
- effect on virulence factor expression in screen [2]: down-regulated virulence factor expression

Molecule: COc1ccc2cc([C@H](C)C(=O)O)ccc2c1 [naproxen]
- effect on virulence factor expression in screen [2]: down-regulated virulence factor expression

Molecule: Cc1ccc(C(=O)c2cc(O)c(O)c([N+](=O)[O-])c2)cc1 [tolcapone]
- effect on virulence factor expression in screen [2, 8]: A similar effect

Molecule: Colistin
- % Growth Inhibition (P. aeruginosa [1]; [7]): 96%
